Measured values taken from the NIST ThermoML archive (doi:10.1021/acs.jced.8b00427).

Conditions: Liquid, Frequency=4 MHz, Pulse-echo method

FC(F)(F)/C=C/Cl [(E)-1-chloro-3,3,3-trifluoroprop-1-ene]
Conditions	speed of sound [m/s]
273.14 K, 30070 kPa	936.9
273.15 K, 5030 kPa	815.43
273.15 K, 20150 kPa	892.92
273.15 K, 25090 kPa	915.36
273.16 K, 190 kPa	786.78
273.16 K, 1000 kPa	791.78
273.16 K, 10050 kPa	842.75
273.16 K, 35030 kPa	957.33
283.14 K, 5170 kPa	778.28
283.14 K, 10020 kPa	806.46
283.14 K, 24930 kPa	882.24
283.14 K, 30260 kPa	906.25
283.15 K, 190 kPa	746.74
283.16 K, 980 kPa	752.01
283.16 K, 20000 kPa	858.64
283.16 K, 34920 kPa	926.3
293.15 K, 170 kPa	707.09
293.15 K, 9990 kPa	771.05
293.15 K, 20000 kPa	826.3
293.15 K, 35000 kPa	896.92
293.16 K, 1030 kPa	713.25
293.16 K, 5090 kPa	740.63
293.16 K, 30100 kPa	875.12
313.14 K, 270 kPa	628.5
313.15 K, 5010 kPa	666.72
313.15 K, 10000 kPa	702.15
313.15 K, 19990 kPa	763.58
313.15 K, 30050 kPa	816.73
313.15 K, 34920 kPa	840.09
313.16 K, 1180 kPa	636.05
333.14 K, 5010 kPa	594.52
333.14 K, 9980 kPa	634.9
333.15 K, 19990 kPa	704.25
333.15 K, 29970 kPa	761.64
333.15 K, 35060 kPa	787.99
353.14 K, 10010 kPa	571.03
353.14 K, 15090 kPa	612.03
353.14 K, 20150 kPa	648.34
353.15 K, 24990 kPa	679.91
353.15 K, 30000 kPa	710.32
353.15 K, 35040 kPa	738.23
